From US20230020329A1, “Annelated 9-hydroxy-1,8-dioxo-1,3,4,8-tetrahydro-2H-pyrido[1,2-a]pyrazine-7-carboxamides as HIV integrase inhibitors, methods of preparation and application thereof” (priority 2019, published 2023) come the findings set out here.

As usually defined, the EC50 is the concentration needed to bring the measured effect to its halfway point.

In the test the test system is HIV-1 (IIIB strain). Description: Anti-HIV cytoprotection assay (XTT), HIV-1 IIIB in CEM-SS cells. In kind it is cell-based. The settings on record: Human immunodeficiency virus 1, IIIB, CEM-SS, CEM-SS cell line; read-out: Inhibitory activity (EC50) against HIV-1 (IIIB strain). An excerpt:
a) Inhibitory Activity of the Lymphocytropic Virus Strain HIV-1 (IIIB) in the CEM-SS Cell Line.
The evaluation was done by ImQuest BioSciences, Inc. (Frederick, Md., USA). CEM-SS cells [Foley G. E. et al. Continuous Culture of Human Lymphoblasts from Peripheral Blood of a Child with Acute Leukemia. Cancer 1965, 18, 522-529] obtained through the NIH AIDS Research and Reference Reagent Program (Manassas, Va., USA) were passaged in T-75 flasks prior to use cell culture medium consisting of RPMI1640 medium (Lonza; Walkersville, Md., USA) supplemented with 10% heat inactivated fetal bovine serum (Gibco; Grand Island, N.Y.), […] L-glutamine (Lonza), […] penicillin (Lonza) and […] streptomycin (Lonza) for antiviral analysis. The CEM-SS cells were kept in RPMI 140 medium supplemented with 10% heat inactivated bovine fetal serum, 2 mM glutamine, 100 U/ml penicillin, and 100 μg/ml streptomycin.
A lymphocytropic HIV-1 IIIB strain [Popovic, M. et al. Detection, isolation, and continuous production of cytopathic retroviruses (HTLV-III) from patients with AIDS and pre-AIDS. Science. 1984, 224 (4648), 497-500] was chosen for a virus to be analyzed. The virus was obtained through the NIH AIDS Research and Reference Reagents Program and grown in CEM-SS cells to produce a stock virus pool. A pre-titrated aliquot of the virus was removed from the freezer (−80° C.) and allowed to slowly thaw to room temperature in a biological safety cabinet. The virus was diluted in a tissue culture medium so that the amount of virus added in 50 μl per well was sufficient to kill 85 to 95% of the cells 6 days after infection. HIV-1 IIIB was grown and titrated in CEM-SS cells. The inhibitory effect of […] was evaluated in CEM-SS cells as described earlier [Nara, P. L. at al. Simple, rapid, quantitative, syncytium-forming microassay for the detection of human immunodeficiency virus neutralizing antibody. AIDS Res. Hum. Retroviruses 1987, 3, 283-302.] in microtiter plate anti-HIV assays to quantitatively assess the ability of a compound to inhibit HIV-induced cell death. Quantification was carried out using 2,3-bis-(2-methoxy-4-nitro-5-[…])-(2H)-tetrazolium-5-carboxanilide (XTT) tetrazolium, which is metabolized to a stained formazan product through viable […] The compounds given in Table 1 were dissolved at 10 μM in DMSO and stored at −20° C.
Test materials were evaluated using antiviral assays in triplicate in concentrations of 30 and 10 nM. The compounds shown in table 1 were dissolved at 10 μM in DMSO and stored at −20° C. […] Sixty nanomolar concentrations of each compound (2 times that of the test concentration in the well) were prepared by diluting 10 μM DMSO stock 1:100 in cell culture medium (10 μl of compound added to 990 μl of the medium) followed by 1:10 dilution (10 μl of the compound was added to 90 μl of the medium), then 6 μl was added to 994 μl of the medium; […] μl was added to a 96-well microtiter plate in triplicate to ensure efficacy and one colorimetric well. Twenty nanomolar concentrations of each compound (twice as much as the test concentration in the well) were prepared by diluting 10 μM DMSO with the original 1:100 in cell culture medium (10 μl of the compound added to 990 μl of the medium) followed by diluting […] (10 μl of the compound was added to 900 μl of the medium), then 20 μl was added to 980 μl of the medium; 100 μl was added to a 96-well microtiter plate in triplicate to ensure efficacy and one colorimetric well.
Azidothymidine (AZT) was purchased from Sigma Aldrich (USA) and evaluated as a positive control compound in an antiviral assay using a six-concentration reaction curve on each assay plate.
Test compounds were initially evaluated for HIV-1 IIIB strain in CEM-SS cells at test concentrations of 30 and 10 nM. […]
In general terms: Formazan colour is commonly taken as a measure of viable cells.
Consider `C[C@H]1CO[C@@H]2Cn3cc(C(=O)NCc4nnc5ccc(Cl)nn45)c(=O)c(O)c3C(=O)N12` [Compound 1.1.60, (3S,11aR)-6-hydroxy-3-methyl-N-[(6-chloro[1,2,4]triazolo[4,3-b]pyridazin-3-yl)methyl]-5,7-dioxo-2,3,5,7,11,11a-hexahydro[1,3]oxazolo[3,2-a]pyrido[1,2-d]pyrazine-8-carboxamide], for which the half-maximal effective concentration (EC50) was in the range of 0.01 to 0.03 µM.
In the case of `C[C@H]1CO[C@@H]2Cn3cc(C(=O)NCc4cnc5cnccn45)c(=O)c(O)c3C(=O)N12` [Compound 1.1.59, (3S,11aR)-6-hydroxy-N-(imidazo[1,2-a]pyrazin-3-ylmethyl)-3-methyl-5,7-dioxo-2,3,5,7,11,11a-hexahydro[1,3]oxazolo[3,2-a]pyrido[1,2-d]pyrazine-8-carboxamide], the EC50 was greater than 0.03 µM.
Next, `C[C@H]1CO[C@@]23CCC[C@@H]2n2cc(C(=O)NCc4c(F)cc(F)nc4F)c(=O)c(O)c2C(=O)N13` [Compound 2.2.3, (3aS,6S,13aS)-9-hydroxy-6-methyl-N-[(2,4,6-trifluoropyridin-3-yl)methyl]-8,10-dioxo-1,2,3,5,6,8,10,13a-octahydrocyclopenta[b][1,3]oxazolo[3,2-a]pyrido[1,2-d]pyrazine-11-carboxamide]: 0.002 to 0.01 µM; `C[C@H]1CO[C@@H]2Cn3cc(C(=O)NCc4c(F)ccnc4F)c(=O)c(O)c3C(=O)N12` [Compound 1.1.21, (3S,11aR)-6-hydroxy-N-[(2,4-difluoropyridin-3-yl)methyl]-3-methyl-5,7-dioxo-2,3,5,7,11,11a-hexahydro[1,3]oxazolo[3,2-a]pyrido[1,2-d]pyrazine-8-carboxamide]: greater than 0.03 µM; `Cc1nn(C)c(C)c1CNC(=O)c1cn2c(c(O)c1=O)C(=O)N1[C@@H](C)CO[C@@H]1C2` [Compound 1.1.5, (3S,11aR)-6-hydroxy-3-methyl-N-[(1,3,5-trimethyl-1H-pyrazol-4-yl)methyl]-5,7-dioxo-2,3,5,7,11,11a-hexahydro[1,3]oxazolo[3,2-a]pyrido[1,2-d]pyrazine-8-carboxamide]: 0.01 to 0.03 µM.
Next, `C[C@H]1CO[C@@H]2Cn3cc(C(=O)NCc4cn5ncsc5n4)c(=O)c(O)c3C(=O)N12` [Compound 1.1.29, (3S,11aR)-6-hydroxy-N-(imidazo[2,1-b][1,3,4]thiadiazol-6-ylmethyl)-3-methyl-5,7-dioxo-2,3,5,7,11,11a-hexahydro[1,3]oxazolo[3,2-a]pyrido[1,2-d]pyrazine-8-carboxamide]: greater than 0.03 µM; `C[C@@H]1CO[C@@]23CCC[C@@H]2n2cc(C(=O)NCc4c(F)cc(F)nc4F)c(=O)c(O)c2C(=O)N13` [Compound 2.1.3, (3aS,6R,13aS)-9-hydroxy-6-methyl-N-[(2,4,6-trifluoropyridin-3-yl)methyl]-8,10-dioxo-1,2,3,5,6,8,10,13a-octahydrocyclopenta[b][1,3]oxazolo[3,2-a]pyrido[1,2-d]pyrazine-11-carboxamide]: 0.002 to 0.01 µM.
Next, `C[C@H]1CO[C@@H]2Cn3cc(C(=O)NCc4ccc5c(ccn5C)c4)c(=O)c(O)c3C(=O)N12` [Compound 1.1.33, (3S,11aR)-6-hydroxy-3-methyl-N-[(1-methyl-1H-indol-5-yl)methyl]-5,7-dioxo-2,3,5,7,11,11a-hexahydro[1,3]oxazolo[3,2-a]pyrido[1,2-d]pyrazine-8-carboxamide]: 0.01 to 0.03 µM.
`Cc1coc(CNC(=O)c2cn3c(c(O)c2=O)C(=O)N2[C@@H](C)CO[C@@H]2C3)n1` [Compound 1.1.9, (3S,11aR)-6-hydroxy-3-methyl-N-[(4-methyl-1,3-oxazol-2-yl)methyl]-5,7-dioxo-2,3,5,7,11,11a-hexahydro[1,3]oxazolo[3,2-a]pyrido[1,2-d]pyrazine-8-carboxamide]: the EC50 was greater than 0.03 µM.
The result for `O=C(NCc1c(F)cncc1F)c1cn2c(c(O)c1=O)C(=O)N1[C@H]3CC[C@H](C3)O[C@@H]1C2` [Compound 1.3.3, (2R,5S,13aR)-8-hydroxy-N-[(3,5-difluoropyridin-4-yl)methyl]-7,9-dioxo-2,3,4,5,7,9,13,13a-octahydro-2,5-methanopyrido[1′,2′:4,5]pyrazino[2,1-b][1,3]oxazepine-10-carboxamide] reads 0.002 to 0.01 µM; that for `C[C@H]1CO[C@@H]2Cn3cc(C(=O)NCc4nc5c(s4)CCCCC5)c(=O)c(O)c3C(=O)N12` [Compound 1.1.63, (3S,11aR)-6-hydroxy-3-methyl-5,7-dioxo-N-(5,6,7,8-tetrahydro-4H-cyclohepta[d][1,3]thiazol-2-ylmethyl)-2,3,5,7,11,11a-hexahydro[1,3]oxazolo[3,2-a]pyrido[1,2-d]pyrazine-8-carboxamide], greater than 0.03 µM.
The result for `Cc1ccc2[nH]c(CNC(=O)c3cn4c(c(O)c3=O)C(=O)N3[C@@H](C)CO[C@@H]3C4)nc2c1` [Compound 1.1.40, (3S,11aR)-6-hydroxy-3-methyl-N-[(5-methyl-1H-benzimidazol-2-yl)methyl]-5,7-dioxo-2,3,5,7,11,11a-hexahydro[1,3]oxazolo[3,2-a]pyrido[1,2-d]pyrazine-8-carboxamide] reads greater than 0.03 µM; that for `Cc1nn2cc(CNC(=O)c3cn4c(c(O)c3=O)C(=O)N3[C@@H](C)CO[C@@H]3C4)nc2s1` [Compound 1.1.30, (3S,11aR)-6-hydroxy-3-methyl-N-[(2-methylimidazo[2,1-b][1,3,4]thiadiazol-6-yl)methyl]-5,7-dioxo-2,3,5,7,11,11a-hexahydro[1,3]oxazolo[3,2-a]pyrido[1,2-d]pyrazine-8-carboxamide], greater than 0.03 µM; that for `Cc1ccc(CNC(=O)c2cn3c(c(O)c2=O)C(=O)N2[C@@H](C)CO[C@@H]2C3)o1` [Compound 1.1.3, (3S,11aR)-6-hydroxy-3-methyl-N-[(5-methyl-2-furyl)methyl]-5,7-dioxo-2,3,5,7,11,11a-hexahydro[1,3]oxazolo[3,2-a]pyrido[1,2-d]pyrazine-8-carboxamide], 0.002 to 0.01 µM.
On to `C[C@H]1CO[C@@H]2Cn3cc(C(=O)NCc4ccc5[nH]c(=O)[nH]c5c4)c(=O)c(O)c3C(=O)N12` [Compound 1.1.46, (3S,11aR)-6-hydroxy-N-[(2-oxo-2,3-dihydro-1H-benzimidazol-5-yl)methyl]-3-methyl-5,7-dioxo-2,3,5,7,11,11a-hexahydro[1,3]oxazolo[3,2-a]pyrido[1,2-d]pyrazine-8-carboxamide], for which the EC50 is greater than 0.03 µM.
For the molecule `Cc1nonc1CNC(=O)c1cn2c(c(O)c1=O)C(=O)N1[C@@H](C)CO[C@@H]1C2` [Compound 1.1.12, (3S,11aR)-6-hydroxy-3-methyl-N-[(4-methyl-1,2,5-oxadiazol-3-yl)methyl]-5,7-dioxo-2,3,5,7,11,11a-hexahydro[1,3]oxazolo[3,2-a]pyrido[1,2-d]pyrazine-8-carboxamide], the concentration giving a half-maximal response (EC50) fell in the range of 0.01 to 0.03 µM.
The result for `C[C@H]1CO[C@@H]2Cn3cc(C(=O)NCc4ccnc5ccccc45)c(=O)c(O)c3C(=O)N12` [Compound 1.1.65, (3S,11aR)-6-hydroxy-3-methyl-N-(quinolin-4-ylmethyl)-5,7-dioxo-2,3,5,7,11,11a-hexahydro[1,3]oxazolo[3,2-a]pyrido[1,2-d]pyrazine-8-carboxamide] reads less than 0.002 µM.
